Assay results from ChEMBL document CHEMBL1201862, “PubChem BioAssay data set” (2004).
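Tested at 5 concentrations; 48 h exposure; 96-well plates; endpoints linearly interpolated, else capped at highest concentration. Abbreviation: GI50, concentration required for 50% inhibition of growth.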 Active and inactive are the calls of the source. Cut-off read from the data, not from the text of the source: active = GI50 up to about 1.1 µM and inactive = higher.

Experiments:
Test in all cases: NCI-60 cell line screen, 48 h
HOP-18 = tested on: HOP-18
SK-OV-3 = tested on: SK-OV-3
LXFL 529 = tested on: LXFL 529
NCI-H522 = tested on: NCI-H522
TK-10 = tested on: TK-10
MOLT-4 = tested on: MOLT-4
SNB-78 = tested on: SNB-78
COLO 205 = tested on: COLO 205
NCI-H23 = tested on: NCI-H23
786-0 = tested on: 786-0
K562 = tested on: K562
UACC-257 = tested on: UACC-257
HOP-62 = tested on: HOP-62
RPMI-8226 = tested on: RPMI-8226
OVCAR-5 = tested on: OVCAR-5
RXF 631 = tested on: RXF 631
LOX IMVI = tested on: LOX IMVI
Malme-3M = tested on: Malme-3M
HL-60 = tested on: HL-60
M19-MEL = tested on: M19-MEL
SR = tested on: SR
NCI-H460 = tested on: NCI-H460
UO-31 = tested on: UO-31
DMS-273 = tested on: DMS-273
HCT-15 = tested on: HCT-15
SF-539 = tested on: SF-539
HCC 2998 = tested on: HCC 2998
CCRF-CEM = tested on: CCRF-CEM
SN12C = tested on: SN12C
DLD-1 = tested on: DLD-1
NCI-H226 = tested on: NCI-H226
SK-MEL-2 = tested on: SK-MEL-2
DMS-114 = tested on: DMS-114
SK-MEL-28 = tested on: SK-MEL-28
OVCAR-8 = tested on: OVCAR-8
SF-268 = tested on: SF-268
RXF 393 = tested on: RXF 393
SW-620 = tested on: SW-620
KM12 = tested on: KM12
CAKI-1 = tested on: CAKI-1
IGROV-1 = tested on: IGROV-1
M14 = tested on: M14
U-251 = tested on: U-251
EKVX = tested on: EKVX
OVCAR-4 = tested on: OVCAR-4
SNB-75 = tested on: SNB-75
SK-MEL-5 = tested on: SK-MEL-5
UACC-62 = tested on: UACC-62
A498 = tested on: A498
OVCAR-3 = tested on: OVCAR-3
KM-20L2 = tested on: KM-20L2
SF-295 = tested on: SF-295
ACHN = tested on: ACHN
A549 = tested on: A549
HT-29 = tested on: HT-29
HCT-116 = tested on: HCT-116
HOP-92 = tested on: HOP-92
SNB-19 = tested on: SNB-19
XF498 = tested on: XF498

O=C(O/N=C1/CCC/C1=C\c1ccccc1)c1ccc([N+](=O)[O-])cc1
GI50 (HOP-18): > 100 µM (inactive)
GI50 (SK-OV-3): > 100 µM (inactive)
GI50 (LXFL 529): > 100 µM (inactive)
GI50 (NCI-H522): > 100 µM (inactive)
GI50 (TK-10): > 100 µM (inactive)
GI50 (MOLT-4): > 100 µM (inactive)
GI50 (SNB-78): > 100 µM (inactive)
GI50 (COLO 205): > 100 µM (inactive)
GI50 (NCI-H23): > 100 µM (inactive)
GI50 (786-0): > 100 µM (inactive)
GI50 (K562): > 100 µM (inactive)
GI50 (UACC-257): > 100 µM (inactive)
GI50 (HOP-62): 96.6 µM (inactive)
GI50 (RPMI-8226): > 100 µM (inactive)
GI50 (OVCAR-5): > 100 µM (inactive)
GI50 (RXF 631): > 100 µM (inactive)
GI50 (LOX IMVI): > 100 µM (inactive)
GI50 (Malme-3M): > 100 µM (inactive)
GI50 (HL-60): > 100 µM (inactive)
GI50 (M19-MEL): 15.5 µM (inactive)
GI50 (SR): > 100 µM (inactive)
GI50 (NCI-H460): > 100 µM (inactive)
GI50 (UO-31): 25.3 µM (inactive)
GI50 (DMS-273): > 100 µM (inactive)
GI50 (HCT-15): > 100 µM
GI50 (SF-539): 89.3 µM (inactive)
GI50 (HCC 2998): 11.7 µM (inactive)
GI50 (CCRF-CEM): > 100 µM (inactive)
GI50 (SN12C): > 100 µM (inactive)
GI50 (DLD-1): > 100 µM (inactive)
GI50 (NCI-H226): > 100 µM (inactive)
GI50 (SK-MEL-2): > 100 µM (inactive)
GI50 (DMS-114): > 100 µM (inactive)
GI50 (SK-MEL-28): > 100 µM (inactive)
GI50 (OVCAR-8): > 100 µM (inactive)
GI50 (SF-268): 71.6 µM (inactive)
GI50 (RXF 393): 84.7 µM (inactive)
GI50 (SW-620): > 100 µM (inactive)
GI50 (KM12): > 100 µM (inactive)
GI50 (CAKI-1): > 100 µM (inactive)
GI50 (IGROV-1): > 100 µM (inactive)
GI50 (M14): > 100 µM (inactive)
GI50 (U-251): > 100 µM (inactive)
GI50 (EKVX): > 100 µM (inactive)
GI50 (OVCAR-4): > 100 µM (inactive)
GI50 (SNB-75): 31.6 µM (inactive)
GI50 (SK-MEL-5): > 100 µM (inactive)
GI50 (UACC-62): > 100 µM (inactive)
GI50 (A498): > 100 µM (inactive)
GI50 (OVCAR-3): > 100 µM (inactive)
GI50 (KM-20L2): > 100 µM (inactive)
GI50 (SF-295): > 100 µM (inactive)
GI50 (ACHN): > 100 µM (inactive)
GI50 (A549): > 100 µM (inactive)
GI50 (HT-29): > 100 µM (inactive)
GI50 (HCT-116): > 100 µM (inactive)
GI50 (HOP-92): > 100 µM (inactive)

Nc1ccccc1S(=O)(=O)c1ccccc1
GI50 (HOP-18): > 100 µM (inactive)
GI50 (SK-OV-3): > 100 µM (inactive)
GI50 (LXFL 529): > 100 µM (inactive)
GI50 (TK-10): > 100 µM (inactive)
GI50 (MOLT-4): > 100 µM (inactive)
GI50 (COLO 205): > 100 µM (inactive)
GI50 (NCI-H23): > 100 µM (inactive)
GI50 (K562): > 100 µM (inactive)
GI50 (UACC-257): > 100 µM (inactive)
GI50 (HOP-62): > 100 µM (inactive)
GI50 (RPMI-8226): > 100 µM (inactive)
GI50 (OVCAR-5): > 100 µM (inactive)
GI50 (RXF 631): > 100 µM (inactive)
GI50 (LOX IMVI): > 100 µM (inactive)
GI50 (Malme-3M): > 100 µM (inactive)
GI50 (HL-60): > 100 µM (inactive)
GI50 (M19-MEL): > 100 µM (inactive)
GI50 (SR): > 100 µM (inactive)
GI50 (NCI-H460): > 100 µM (inactive)
GI50 (UO-31): > 100 µM (inactive)
GI50 (DMS-273): > 100 µM (inactive)
GI50 (HCT-15): > 100 µM
GI50 (SF-539): > 100 µM (inactive)
GI50 (HCC 2998): > 100 µM (inactive)
GI50 (CCRF-CEM): > 100 µM (inactive)
GI50 (SN12C): > 100 µM (inactive)
GI50 (DLD-1): > 100 µM (inactive)
GI50 (NCI-H226): 51.2 µM (inactive)
GI50 (SK-MEL-2): > 100 µM (inactive)
GI50 (DMS-114): > 100 µM (inactive)
GI50 (SK-MEL-28): > 100 µM (inactive)
GI50 (OVCAR-8): > 100 µM (inactive)
GI50 (SF-268): > 100 µM (inactive)
GI50 (RXF 393): > 100 µM (inactive)
GI50 (SW-620): > 100 µM (inactive)
GI50 (KM12): > 100 µM (inactive)
GI50 (IGROV-1): > 100 µM (inactive)
GI50 (M14): > 100 µM (inactive)
GI50 (U-251): > 100 µM (inactive)
GI50 (EKVX): > 100 µM (inactive)
GI50 (OVCAR-4): > 100 µM (inactive)
GI50 (SNB-75): 41.1 µM (inactive)
GI50 (SNB-19): > 100 µM (inactive)
GI50 (SK-MEL-5): > 100 µM (inactive)
GI50 (UACC-62): > 100 µM (inactive)
GI50 (A498): > 100 µM (inactive)
GI50 (OVCAR-3): > 100 µM (inactive)
GI50 (KM-20L2): > 100 µM (inactive)
GI50 (SF-295): > 100 µM (inactive)
GI50 (ACHN): > 100 µM (inactive)
GI50 (A549): > 100 µM (inactive)
GI50 (HT-29): > 100 µM (inactive)
GI50 (HCT-116): > 100 µM (inactive)
GI50 (HOP-92): > 100 µM (inactive)

Cn1nc(-c2ccccc2)c2c(/C=C/c3ccc(Cl)cc3)onc2c1=O
GI50 (HOP-18): 9.84 µM (inactive)
GI50 (SK-OV-3): > 10 µM (inactive)
GI50 (LXFL 529): 39.9 µM (inactive)
GI50 (NCI-H522): 13.3 µM (inactive)
GI50 (TK-10): 33 µM (inactive)
GI50 (MOLT-4): > 100 µM (inactive)
GI50 (COLO 205): 30.8 µM (inactive)
GI50 (NCI-H23): > 100 µM (inactive)
GI50 (786-0): 7.6 µM (inactive)
GI50 (K562): 40.8 µM (inactive)
GI50 (RPMI-8226): 31.8 µM (inactive)
GI50 (RXF 631): > 100 µM (inactive)
GI50 (LOX IMVI): 25.6 µM (inactive)
GI50 (M19-MEL): 89.9 µM (inactive)
GI50 (NCI-H460): > 100 µM (inactive)
GI50 (UO-31): 16.3 µM (inactive)
GI50 (DMS-273): > 100 µM (inactive)
GI50 (HCT-15): 26.3 µM
GI50 (SF-539): 22.6 µM (inactive)
GI50 (CCRF-CEM): 27.7 µM (inactive)
GI50 (SN12C): 17.1 µM (inactive)
GI50 (DLD-1): 46 µM (inactive)
GI50 (DMS-114): > 100 µM (inactive)
GI50 (SK-MEL-28): 51.3 µM (inactive)
GI50 (OVCAR-8): 16.7 µM (inactive)
GI50 (SF-268): > 100 µM (inactive)
GI50 (RXF 393): 39.8 µM (inactive)
GI50 (SW-620): 28.7 µM (inactive)
GI50 (CAKI-1): > 10 µM (inactive)
GI50 (IGROV-1): 31.4 µM (inactive)
GI50 (M14): > 100 µM (inactive)
GI50 (U-251): 33.7 µM (inactive)
GI50 (EKVX): > 100 µM (inactive)
GI50 (SNB-19): 41.5 µM (inactive)
GI50 (SK-MEL-5): > 100 µM (inactive)
GI50 (UACC-62): 35.8 µM (inactive)
GI50 (KM-20L2): 19.1 µM (inactive)
GI50 (SF-295): 27.4 µM (inactive)
GI50 (XF498): 10.5 µM (inactive)
GI50 (ACHN): 8.57 µM (inactive)
GI50 (A549): 8.95 µM (inactive)
GI50 (HT-29): 34.4 µM (inactive)
GI50 (HCT-116): 11.1 µM (inactive)
GI50 (HOP-92): 21.7 µM (inactive)
